Data: article PMC7108740, “Exploring the molecular structures that confer ligand selectivity for galanin type II and III receptors” (PLoS ONE, 2020)
Ends that are not written are not given here.

Tests used:
Format in all cases: cell-based
[1] = target: T1, GALR3 mutant L^184M,V^186I,A^187C, A^190V,A^191F,G^192S (Homo sapiens, UniProt O60755, A187C/A190V/A191F/G192S/L184M/V186I); assay: SRE-luc luciferase assay, GALR3 hextuple mutant; conditions: GALR3 L^184M,V^186I,A^187C, SRE-luc in HEK293 Gqi cells, ligand 6 h, mean ± S.E., SEM
T1 construct: expressed in transfected cells; host or cells: HEK293 cells stably expressing Gqi
T1 sequence (O60755 whole entry L184M/V186I/A187C/A190V/A191F/G192S): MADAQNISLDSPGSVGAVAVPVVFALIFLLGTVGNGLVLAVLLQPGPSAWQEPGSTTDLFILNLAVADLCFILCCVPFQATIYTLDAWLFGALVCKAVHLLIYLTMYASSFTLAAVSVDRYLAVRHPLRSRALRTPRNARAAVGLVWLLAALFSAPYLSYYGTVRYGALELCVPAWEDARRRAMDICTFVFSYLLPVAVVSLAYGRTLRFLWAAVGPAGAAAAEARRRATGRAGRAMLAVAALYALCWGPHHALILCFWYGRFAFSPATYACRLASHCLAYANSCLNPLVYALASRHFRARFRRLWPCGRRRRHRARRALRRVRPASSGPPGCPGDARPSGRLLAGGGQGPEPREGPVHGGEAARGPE
Source text: (§1) For domain swapping between GALR2 and GALR3, individual cDNA fragments of interest were amplified by polymerase chain reaction (PCR) with Pfu polymerase (ELPIS Biotech, Daejeon, Korea) and two specific primers, one corresponding to the 5' or 3' end of the GALR2 or GALR3 cDNA and the other to the region of overlap between the two receptors. The two resulting fragments, one from GALR2 and the other from GALR3, were subjected to a second round of PCR to generate the chimeric cDNAs. To construct single, double-, triple-, pentuple-, hextuple-, and septuple-mutant receptors, amino acids of GALR3 were substituted for the amino acids at the corresponding positions in GALR2 using PCR-based site-directed mutagenesis. All of the chimeric constructs were cloned into the pcDNA3 expression vector at HindⅢ and XbaⅠ sites. The DNA sequences of the chimeras were verified by automatic sequencing. […] The luciferase activity in 50 μl cell extract was determined using a luciferase assay system according to the standard protocol for the Synergy 2 Multi-Mode Microplate Reader (BioTek, Winooski, VT, USA). […] The concentrations of agonists that induced half-maximal stimulation (EC50) were calculated using the GraphPad PRISM5 software (GraphPad software, Inc., San Diego, CA). […]

[2] = target: T2, GALR3 single mutant L^184M (Homo sapiens, UniProt O60755, L184M); assay: SRE-luc luciferase assay, GALR3 L184M; conditions: GALR3 L^184M; SRE-luc in HEK293 Gqi cells, ligand 6 h; mean ± S.E.; SEM
T2 construct: expressed in transfected cells; host or cells: HEK293 cells stably expressing Gqi
T2 sequence (O60755 whole entry L184M): as the sequence (O60755 whole entry L184M/V186I/A187C/A190V/A191F/G192S) above, with I186V, C187A, V190A, F191A, S192G counted along it
Source text: as §1

[3] = target: T3, GALR3 mutant L^184M,V^186I,A^190V (Homo sapiens, UniProt O60755, A190V/L184M/V186I); assay: SRE-luc luciferase assay, GALR3 L184M,V186I,A190V; conditions: GALR3 L^184M,V^186I,A^190V; SRE-luc in HEK293 Gqi cells, ligand 6 h; mean ± S.E.; SEM
T3 construct: expressed in transfected cells; host or cells: HEK293 cells stably expressing Gqi
T3 sequence (O60755 whole entry L184M/V186I/A190V): as the sequence (O60755 whole entry L184M/V186I/A187C/A190V/A191F/G192S) above, with C187A, F191A, S192G counted along it
Source text: as §1

[4] = target: T4, GALR3 single mutant A^190V (Homo sapiens, UniProt O60755, A190V); assay: SRE-luc luciferase assay, GALR3 A190V; conditions: GALR3 A^190V; SRE-luc in HEK293 Gqi cells, ligand 6 h; mean ± S.E.; SEM
T4 construct: expressed in transfected cells; host or cells: HEK293 cells stably expressing Gqi
T4 sequence (O60755 whole entry A190V): as the sequence (O60755 whole entry L184M/V186I/A187C/A190V/A191F/G192S) above, with M184L, I186V, C187A, F191A, S192G counted along it
Source text: as §1

[5] = target: T5, GALR3 single mutant A^187C (Homo sapiens, UniProt O60755, A187C); assay: SRE-luc luciferase assay, GALR3 A187C; conditions: GALR3 A^187C; SRE-luc in HEK293 Gqi cells, ligand 6 h; mean ± S.E.; SEM
T5 construct: expressed in transfected cells; host or cells: HEK293 cells stably expressing Gqi
T5 sequence (O60755 whole entry A187C): as the sequence (O60755 whole entry L184M/V186I/A187C/A190V/A191F/G192S) above, with M184L, I186V, V190A, F191A, S192G counted along it
Source text: as §1

[6] = target: T6, GALR3 single mutant C^272L (Homo sapiens, UniProt O60755, C272L); assay: SRE-luc luciferase assay, GALR3 C272L; conditions: GALR3 C^272L; SRE-luc in HEK293 Gqi cells, ligand 6 h; mean ± S.E.; SEM
T6 construct: expressed in transfected cells; host or cells: HEK293 cells stably expressing Gqi
T6 sequence (O60755 whole entry C272L): as the sequence (O60755 whole entry L184M/V186I/A187C/A190V/A191F/G192S) above, with M184L, I186V, C187A, V190A, F191A, S192G, C272L counted along it
Source text: as §1

[7] = target: T7, GALR3 single mutant S^266T (Homo sapiens, UniProt O60755, S266T); assay: SRE-luc luciferase assay, GALR3 S266T; conditions: GALR3 S^266T; SRE-luc in HEK293 Gqi cells, ligand 6 h; mean ± S.E.; SEM
T7 construct: expressed in transfected cells; host or cells: HEK293 cells stably expressing Gqi
T7 sequence (O60755 whole entry S266T): as the sequence (O60755 whole entry L184M/V186I/A187C/A190V/A191F/G192S) above, with M184L, I186V, C187A, V190A, F191A, S192G, S266T counted along it
Source text: as §1

| Compound | EC50 [1] | EC50 [2] | EC50 [3] | EC50 [4] | EC50 [5] | EC50 [6] | EC50 [7] |
| --- | --- | --- | --- | --- | --- | --- | --- |
| NWTPQAMLYLKGPQ-NH2 [P^13-SPX] | 112 ± 25.1 nM | 437 ± 89.8 nM | 324 ± 89.2 nM | 468 ± 105 nM | 550 ± 151 nM | – | – |
| CSCC[C@H](NC(=O)[C@H](C)NC(=O)[C@H](CCC(N)=O)NC(=O)[C@@H]1CCCN1C(=O)[C@@H](NC(=O)[C@H](Cc1c[nH]c2ccccc12)NC(=O)[C@@H](N)CC(N)=O)[C@@H](C)O)C(=O)N[C@@H](CC(C)C)C(=O)N[C@@H](Cc1ccc(O)cc1)C(=O)N[C@@H](CC(C)C)C(=O)N[C@@H](CCCCN)C(=O)NCC(=O)N[C@@H](C)C(=O)N[C@@H](CCC(N)=O)C(N)=O [SPX, reference compound] | 25.7 ± 7.92 nM | 46.8 ± 15.9 nM | 49 ± 16.6 nM | 77.6 ± 18.7 nM | 115 ± 27.7 nM | 28.8 ± 6.96 nM | 38 ± 10.5 nM |
